According to US8962580B2, “Chemical modifications of monomers and oligonucleotides with cycloaddition” (Alnylam Pharmaceuticals, Inc., priority 2008, dated 2015):
Where two headings read alike, the source gives them in different places. {L125} = ligand L125 of the publication, structure not given; d = 2'-deoxy (DNA); m = 2'-O-methyl; r = 2'-OH (RNA)

System: firefly luciferase gene
Assay: Dual-luciferase assay for RNA interfering evaluation
Format: cell-based
Conditions: for IC50: read-out: IC 50 Values
Experimental: 1. Dual-Luciferase Assay for RNA Interfering Evaluation
Modified RNAs obtained by solid-phase synthesis and click reactions were evaluated in RNA interfering in dual-luciferase assays. Duplexes were prepared by heating at 95° C. for 2 min and cooling to room temperature for 2 hours in 1X Phosphate buffered saline. (Table 12-14).
The ability of modified siRNAs to suppress gene expression was studied by a dual-luciferase assay using a pGL4 vector (Promega), which contained the Renilla and firefly luciferase genes. The siRNA sequences were designed to target the firefly luciferase gene. Stably transfected HeLa cells were then transfected with the indicated amounts of siRNAs, and the signals of firefly luciferase were normalized to those of renilla luciferase. HeLa SS6 cells were stably transfected with plasmids encoding firefly (target) and Renilla (control) luciferases.
RNA interference methods: Hela cells were grown at 37° C., 5% CO2 in Dulbecco's modified Eagles's medium (DMEM, GIBCO) supplemented with 10% fetal bovine serum (FBS) and 1% antibiotic. The cells were maintained in the exponential growth phase. The cells were then plated in 96-well plates (0.1 mL medium per well) to reach about 90% confluence at transfection. Transfection was allowed to proceed for 24 hr at 37° C. and on day 2 the culture medium was changed to OPTIMEM 1, a reduced serum media (GIBCO). Two luciferase plasmids, Renilla luciferase (pRL-CMV) and firefly luciferase (pGL3) from Promega, were used as control and reporter, respectively. Transfection of siRNAs was carried out with Lipofectamine 2000 (Invitrogen) as described by the manufacturer for adherent cell lines. The final volume was 150 uL per well. On day 2 cells are transfected with, firefly luciferase targeting, siRNA of varying concentrations ranging from 2 pM to 8 nM mediated by Lipofectamine 2000 reagent (Invitrogen). After 24 h, cells were analyzed for both firefly and renilla luciferase expression using a plate luminometer with a delay time of 2 s and an integrate time of 10 s. (VICTOR2, PerkinElmer, Boston, Mass.) and the Dual-Glo Luciferase Assay kit (Promega), FIG. 24. Firefly/renilla luciferase expression ratios were used to determine percent gene silencing relative to untreated (no siRNA) controls. Values generated represent the mean of triplicates.
The screening process began with a primary screen where all the compounds were screened against the parent unmodified duplex as a comparison. […] The final set of compounds was compared to one of our best modifications AD3202 and it can be seen that these compounds match up to AD 3202 in potency, however the exact mechanism by which the Uda modification contributes to improved activity is to be determined through further studies.
Dual HeLa (HeLa cells transfected with PGL4 plasmid for luciferase expression)
Tissue culture medium, trypsin and Lipofectamine-2000—purchased from Invitrogen (Carlsbad, Calif.).
DMEM supplemented with 10% fetal bovine serum, 1% antibiotic solution.
siRNA treatment was performed using Opti-MEM (Invitrogen) containing 1 mg/ml Lipofectamine2000
DMEM without phenol red, Promega Dual Glo Luciferase Assay kit, 0.25% Trypsin (Invitrogen).

[1] = Table 13 (Part II), stably transfected HeLa cells, Lipofectamine 2000, 24 h, firefly/renilla luciferase ratio
[2] = Table 12 (Part I), stably transfected HeLa cells, Lipofectamine 2000, 24 h, firefly/renilla luciferase ratio

AD-1000: parent unmodified siRNA duplex: sense 1000 CUUACGCUGAGUACUUCGAdTdT, antisense 1001 UCGAAGUACUCAGCGUAAGdTdT (sense CUUACGCUGAGUACUUCGATT; antisense UCGAAGUACUCAGCGUAAGTT; sugars from the 5' end r19 d2, backbone not given here) [reference compound]
IC50 [1]: 0.38 nM | IC50 (Table 14 (Part III), stably transfected HeLa cells, Lipofectamine 2000, 24 h, firefly/renilla luciferase ratio): 0.326 nM | IC50 (Table 15 (Part IV), selected potent duplexes, secondary screen / head to head comparison): 0.242 nM

AD-20156: siRNA duplex: sense 33031.1 CUUACGCUGAGUACUUCGAdT(Uda2p), antisense 1001; Uda2p-3′end (sense CUUACGCUGAGUACUUCGAT; antisense UCGAAGUACUCAGCGUAAGTT; Uda2p 3' end on sense, chemistry not fully specified)
IC50 [1]: 1.18 nM

AD-20157: siRNA duplex: sense 33032.1 CUUACGCUGAG(Uda)ACUUCGAdT(Uda2p), antisense 1001; U12-->Uda, Uda2p-3′end (sense CUUACGCUGAGUACUUCGAT; antisense UCGAAGUACUCAGCGUAAGTT; U12 Uda, Uda2p 3' end on sense, chemistry not fully specified)
IC 50 Values (nM) [1]: NA—out

AD-20158: siRNA duplex: sense 33033.1 C(Uda)UACGCUGAGUACUUCGAdT(Uda2p), antisense 1001; U2-->Uda, Uda2p-3′end (sense CUUACGCUGAGUACUUCGAT; antisense UCGAAGUACUCAGCGUAAGTT; U2 Uda, Uda2p 3' end on sense, chemistry not fully specified)
Fold Increase in activity as compared to parent (Table 13 (Part II), parent AD-1000): 2 fold | IC50 [1]: 1.5 nM

AD-20201: siRNA duplex: sense 36862 CUUACGCUGAGUACUUCGAdTdTL125, antisense 1001; 3′ L125 (sense CUUACGCUGAGUACUUCGATT; antisense UCGAAGUACUCAGCGUAAGTT; 3' L125 on sense, chemistry not fully specified)
IC50 [2]: 0.922 nM

AD-20202: siRNA duplex: sense 37075 CUUACGCUGAGUACUUCGAdTdT(T1y), antisense 1001; 3′ (Tly) (sense CUUACGCUGAGUACUUCGATTT; antisense UCGAAGUACUCAGCGUAAGTT; 3' (Tly) on sense, chemistry not fully specified)
IC50 [2]: 1.12 nM

AD-20203: siRNA duplex: sense 37077 CUUACGCUGAGUACUUCGAdTdT(T31y), antisense 1001; 3′ (T31y) (sense CUUACGCUGAGUACUUCGATT; antisense UCGAAGUACUCAGCGUAAGTT; 3' (T31y) on sense, chemistry not fully specified)
IC50 [2]: 1.41 nM

AD-20321: siRNA duplex: sense 38103.1 AAcGcuGGGcGuuAAucAAdTdTL125 (2′OMe-all Py and 3′ L125), antisense 24599 UUGAUuAACGCCcAGCGUUdTsdT (sense AACGCUGGGCGUUAAUCAATT; antisense UUGAUUAACGCCCAGCGUUTT; sense: DNA at T, 2'-O-methyl at CU, RNA at AG, 3' {L125}, backbone not given here; antisense: sugars from the 5' end rrrrrmrrrrrrmrrrrrrdd, backbone not given here)
IC 50 Values (nM) [2]: out of range
